The values below come from article PMC9820082, “Synthesis of 9-Hydroxy-1H-Benzo[f]chromene Derivatives with Effective Cytotoxic Activity on MCF7/ADR, P-Glycoprotein Inhibitors, Cell Cycle Arrest and Apoptosis Effects” (International Journal of Molecular Sciences, 2022).

In series [1] the test system is PC-3 (human prostate adenocarcinoma, metastatic). The experiment in a line: MTT colorimetric cytotoxicity assay, PC-3. As to conditions: for IC50: Homo sapiens, MTT, 24 h incubation, mean ± standard error; for times more active than Doxorubicin / times more active than Vinblastine: PC-3 cells, ratio of IC50 values. The format is cell-based. The protocol:
(§1) Three human cancer cell lines, PC-3 (human prostate adenocarcinoma, metastatic), […], were used to test the anti-proliferative activity of β-enaminonitrile (4a–p) using the MTT colorimetric assay at concentrations ranging from 0–100 μM. The representative active cytotoxic substances 4a, 4c, 4d, 4e, 4g, 4i, 4k and 4o were also tested against two normal cell lines, human fetal lung (HFL-1) and human diploid fibroblasts (WI-38), as well as Adriamycin (ADR)-resistant human breast cancer cells (MCF-7/ADR). The reference cytotoxic agents, Vinblastine and Doxorubicin, were used in the tests.
(§2) The tumor cell lines MCF-7, HepG-2, PC-3 MCF-7/ADR, HFL-1 and (WI-38) were obtained from the American Type Culture Collection (ATCC, Rockville, MD, USA). The cells were grown on RPMI-1640 medium supplemented with 10% inactivated fetal calf serum and 50 µg/mL gentamycin. The cells were maintained at 37 ^οC in a humidified atmosphere with 5% CO2 and were subcultured two to three times a week.
(§3) The cytotoxic activity was appraised using the 3-(4,5-dimethylthiazol-2-yl)-2,5-diphenyltetrazolium bromide (MTT) colorimetric assay for the antitumor cell lines, as reported previously, and the ELISA assay for MCF-7/ADR [69].

Series [2] relates to human diploid fibroblasts (WI-38). The experiment in a line: Cytotoxicity against normal cell line WI-38. Format: cell-based. The following applies: 24 h incubation, mean ± standard error. As to the method: as §1, §2, §3
Series [3] has as its system P-glycoprotein (P-gp). The experiment in a line: P-gp content in MCF-7/ADR cell lysate (human P-gp ELISA kit). Format: cell-based. The following applies: for inhibitory effect on the P-gp level: MCF-7/ADR, in words; for inhibition at 48 h, 12.5 µM / inhibition at 48 h, 25 µM / inhibition at 48 h, 50 µM / inhibition at 48 h, 100 µM / IC50 at 48 h: human, MCF-7/ADR cells (cell lysate), MCF-7/ADR cell lysate, ELISA; for inhibition at 48 h, 12.5 µM: Conc. 12.5 (µM); for inhibition at 48 h, 25 µM: Conc. 25 (µM); for inhibition at 48 h, 50 µM: Conc. 50 (µM); for inhibition at 48 h, 100 µM: Conc. 100 (µM). The protocol:
P-glycoprotein (P-gp)-mediated multidrug resistance (MDR) is a phenomenon in which cells become resistant to structurally and mechanistically unrelated drugs, resulting in low intracellular drug concentrations. It is one of the noteworthy problems in malignant tumor clinical therapeutics.
The content of P-gp in the MCF-7/ADR cell lysates after incubation with varying conc. (12.5–100 µM) of tested compounds 4a, 4c, 4d, 4e, 4g and 4i following exposure for 48 hr was determined using a commercial human P-gp (Permeability Glycoprotein) ELISA Kit (MBS2506188, MyBioSource Inc., San Diego, CA, USA). Absorption was recorded at 450 nm with a Spectramax Gemini fluorescence microplate reader (Molecular Devices, Sunnyvale, CA, USA).
(In general: An ELISA detects its analyte on a solid surface through an enzyme-linked reagent.)

The subject of series [4] is MCF-7/ADR cells. The experiment in a line: Annexin V/PI double staining flow cytometric apoptosis test. The format is cell-based, human. As to conditions: IC50 value, 24 h. From the text:
One of the optional mechanisms regarding the lethal action of chemotherapeutic medicines is blocking cell cycle progression, triggering apoptosis with otherwise mutual effect. […] The pivotal relation of the newly synthesized MCF-7/ADR “anticancer drugs” was further evaluated using the Annexin V/PI double staining flow cytometric test. […] In comparison to Doxorubicin’s 30% total apoptosis rate, which was nearly identical to 4a, 4c and 4g, compounds 4d, 4e and 4i were leading with percentages of 41%, 31% and 38%, respectively. Only compounds 4a (8.5%) and 4g (11%) had greater effects on necrosis compared to doxorubicin (5%). Other examined substances caused both early and late apoptosis in all treated cells (Figure 7b). Therefore, MCF-7/ADR cytotoxicity is induced by apoptotic processes, apparently without negative effects on P-gp.
(a) The dot plot of the Annexin V/PI-stained cells, treated with the indicated drugs. […] The data are expressed as the mean ± SD of three independent experiments in triplicate. Significances are shown in comparison to control cells (* p < 0.001). TEXT PRINTED IN THE PICTURE: (a) DOX.: 3.33%; 18.41%; 7.85% | (a) 4a: 8.66%; 18.17%; 4.24% | (a) 4c: 2.74%; 12.73%; 9.11% | (a) 4d: 4.85%; 27.44%; 8.73% | (a) 4e: 5.77%; 9.92%; 15.92% | (a) 4g: 11.04%; 3.94%; 7.38% | (a) 4i: 5.54%; 12.87%; 19.61% DOUBTS OF THE COPYIST ABOUT THIS PICTURE: The quadrant percentages in panel (a) are printed very small and blurred, so 3, 5, 6, 8 and 9 cannot be told apart with certainty. […] They are told apart only by their quadrant in the PI / Annexin V-FITC plot, and are listed upper left, upper right, lower right. / The sample line in each plot reads MCF7/ADR. In the 4g plot it is cut off as 'MCF7/AI'. / The panel 'Cont.' (untreated control: 1.56%, 0.15%, 0.48%) is left out because it is not a substance.
A general note: Flow cytometry measures light scatter and fluorescence of single cells or particles in a stream.

For series [5], the system named is SKOV-3 (ovarian cancer cell line). Description: MTT colorimetric cytotoxicity assay, SKOV-3. The following applies: 24 h incubation, mean ± standard error. The format is cell-based, human. The protocol:
as §1, §3
In general terms: Tetrazolium dyes change colour on reduction, which living cells bring about.

The subject of series [6] is HeLa (cervical cancer cell line). Description: MTT colorimetric cytotoxicity assay, HeLa. Format: cell-based, human. As to conditions: Homo sapiens, HeLa, 24 h, 24 h incubation, mean ± standard error. As to the method:
as §1, §3

Series [7] has as its system Adriamycin (ADR)-resistant human breast cancer cells (MCF-7/ADR). Description: Cytotoxicity against MCF-7/ADR cells. Format: cell-based. The following applies: 24 h exposure, mean ± standard error. The protocol: as §1, §2, §3
The mark [8] stands for this setting: Homo sapiens, NCI/ADR-RES, 24 h.

`N#CC1=C(N)Oc2ccc3ccc(O)cc3c2C1c1ccc(F)cc1F` (centres unmarked) [4a, 3-Amino-1-(2,4-Difluorophenyl)-9-Hydroxy-1H-Benzo[f]chromene-2-Carbonitrile]: in series [1], half-maximal inhibition (IC50) was put at 1.1 ± 0.4 µM, the “times more active than Doxorubicin” value is reported as 1.2 times and the “times more active than Vinblastine” value was 6.8 times. In addition, it took 34.3 ± 1.2 µM to reach half-maximal inhibition in series [2] (IC50). In series [2] (Homo sapiens, WI-38, 24 h), the IC50 (usually the concentration that gives 50% inhibition) lay in the range of 19.1 to 30.1 µM. In series [3], the “inhibitory effect on the P-gp level” value was “strong inhibitory effect”; the inhibition (usually the percentage by which the read-out fell short of the control) at 48 h, 12.5 µM turned out to be 25%; the inhibition at 48 h, 25 µM was determined as 37%; the inhibition at 48 h, 50 µM came out at 68%. Further, in series [3], the inhibition at 48 h, 100 µM was 80% and it took 32 µM to reach half-maximal inhibition (IC50 at 48 h). The compound also displayed a necrosis in series [4] of 8.5%. In addition, in series [5] (Homo sapiens, SK-OV-3, 24 h), the IC50 was found to be 1.4 ± 0.2 µM. Further, the IC50 in series [6] was found to be 2.8 ± 0.3 µM. Further, half-maximal inhibition in series [7] (setting [8]) (IC50) required 10.8 ± 0.4 µM.
Take `N#CC1=C(N)Oc2ccc3ccc(O)cc3c2C1c1cccc(Cl)c1Cl` (centres unmarked) [4c, 3-Amino-1-(2,3-Dichlorophenyl)-9-Hydroxy-1H-Benzo[f]chromene-2-Carbonitrile]: the IC50 in series [1] was determined as 2.9 ± 0.7 µM. In series [2] (Homo sapiens, WI-38, 24 h), this compound yielded an IC50 of 29.4 ± 0.1 µM. Also, in series [3], the “inhibitory effect on the P-gp level” value is listed as “strong inhibitory effect”; the inhibition at 48 h, 12.5 µM was 26%; the inhibition at 48 h, 25 µM came out at 37%; the inhibition at 48 h, 50 µM turned out to be 71%. In series [3], this compound registered an inhibition at 48 h, 100 µM of 88% and an IC50 at 48 h of 30.8 µM. Further, half-maximal inhibition in series [5] (IC50) was put at 4 ± 0.6 µM. The compound also showed an IC50 in series [6] of 1.7 ± 0.1 µM. The compound also gave an IC50 in series [7] of 12.4 ± 0.1 µM. This compound also gave an IC50 in series [7] (setting [8]) of 8.6 to 11.5 µM.
For `N#CC1=C(N)Oc2ccc3ccc(O)cc3c2C1c1ccc(Cl)cc1Cl` (centres unmarked) [4d, 3-Amino-1-(2,4-Dichlorophenyl)-9-Hydroxy-1H-Benzo[f]chromene-2-Carbonitrile], in series [1], 2 ± 0.7 µM corresponded to half-maximal inhibition (IC50). Half-maximal inhibition in series [2] (IC50) was put at 39.1 ± 0.2 µM. Besides, in series [3], the “inhibitory effect on the P-gp level” value was “almost negligible inhibitory effect”; the inhibition at 48 h, 12.5 µM was found to be 10%; the inhibition at 48 h, 25 µM worked out at 25%; the inhibition at 48 h, 50 µM stood at 43%. In addition, in series [3], the inhibition at 48 h, 100 µM amounted to 69% and the IC50 at 48 h is 65.9 µM. In addition, the total apoptosis rate in series [4] was found to be 41%. For the same compound, 1.5 ± 0.1 µM corresponded to half-maximal inhibition in series [5] (Homo sapiens, SK-OV-3, 24 h) (IC50). Further, the half-inhibitory concentration (IC50) in series [6] amounted to 1.8 ± 0.1 µM. Half-maximal inhibition in series [7] (setting [8]) (IC50) was put at 10.4 ± 0.3 µM.
Turning to `N#CC1=C(N)Oc2ccc3ccc(O)cc3c2C1c1cc(Cl)ccc1Cl` (centres unmarked) [4e, 3-Amino-1-(2,5-Dichlorophenyl)-9-Hydroxy-1H-Benzo[f]chromene-2-Carbonitrile], the half-maximal inhibitory concentration (IC50) in series [1] was determined as 2.1 ± 0.5 µM. In addition, in series [2] (Homo sapiens, WI-38, 24 h), 25.4 ± 1.1 µM corresponded to half-maximal inhibition (IC50). Moreover, in series [3], the “inhibitory effect on the P-gp level” value is “strong inhibitory effect”; the inhibition at 48 h, 12.5 µM is 36%; the inhibition at 48 h, 25 µM worked out at 54%; the inhibition at 48 h, 50 µM was 80%. For the same compound, in series [3], the inhibition at 48 h, 100 µM stood at 91% and the IC50 at 48 h was 18.7 µM. The total apoptosis rate in series [4] is on record as 31%. The compound further registered an IC50 in series [5] (Homo sapiens, SK-OV-3, 24 h) of 1.1 ± 0.4 µM. In series [6], this compound returned an IC50 of 2.7 ± 0.6 µM. In series [7] (setting [8]), this compound showed an IC50 of 10 ± 0.3 µM.
As for `N#CC1=C(N)Oc2ccc3ccc(O)cc3c2C1c1ccc(Cl)c(Cl)c1` (centres unmarked) [4g, 3-Amino-1-(3,4-Dichlorophenyl)-9-Hydroxy-1H-Benzo[f]chromene-2-Carbonitrile], the IC50 in series [1] was determined as 2.4 ± 0.1 µM; in series [2] (Homo sapiens, WI-38, 24 h), 26.3 ± 0.2 µM; in series [5] (Homo sapiens, SK-OV-3, 24 h), 0.9 ± 0.3 µM; in series [6], 2.2 ± 0.2 µM; in series [7] (setting [8]) it was 11.5 ± 0.4 µM. Further, in series [3], the inhibition at 48 h, 12.5 µM was 23%. In addition, in series [3], the inhibition at 48 h, 25 µM is 34%. This compound yielded an inhibition at 48 h, 50 µM in series [3] of 66%. This compound also displayed an inhibition at 48 h, 100 µM in series [3] of 83%. For the same compound, the IC50 at 48 h in series [3] was found to be 34.6 µM. This compound also had a necrosis in series [4] of 11%.
`N#CC1=C(N)Oc2ccc3ccc(O)cc3c2C1c1cc(Br)cc(Br)c1` (centres unmarked) [4i, 3-Amino-1-(3,5-Dibromophenyl)-9-Hydroxy-1H-Benzo[f]chromene-2-Carbonitrile]: in series [1], the IC50 was determined as 0.8 ± 0.1 µM, the “times more active than Doxorubicin” value is on record as 1.6 times and the “times more active than Vinblastine” value was 9.4 times. The compound also registered an IC50 in series [2] (Homo sapiens, WI-38, 24 h) of 29.2 ± 1.2 µM. Besides, in series [3], the “inhibitory effect on the P-gp level” value is “almost negligible inhibitory effect”; the inhibition at 48 h, 12.5 µM turned out to be 15%; the inhibition at 48 h, 25 µM was found to be 30%; the inhibition at 48 h, 50 µM was found to be 48%. In series [3], this compound had an inhibition at 48 h, 100 µM of 76% and a concentration for half-maximal inhibition (IC50) at 48 h of 53.6 µM. This compound returned a total apoptosis rate in series [4] of 38%. The compound further returned an IC50 in series [5] of 1.1 ± 0.1 µM. Besides, it took 1.2 µM to reach half-maximal inhibition in series [5] (Homo sapiens, SK-OV-3, 24 h) (IC50). In series [6], this compound showed an IC50 of 3.4 ± 0.6 µM. Also, in series [7] (setting [8]), 8.6 ± 0.7 µM corresponded to half-maximal inhibition (IC50).
